System: chloroquine sensitive (D6) strain of P. falciparum
Test: In vitro anti-malarial activity assay (plasmodial LDH activity), D6 clone
Type: cell-based
Conditions: Plasmodium falciparum, D6; 72 h incubation, LDH readout; read-out: P. falciparum (D6 Clone) IC50
Experimental: In vitro anti-malarial activity of the representative compounds was determined against chloroquine sensitive (D6) and chloroquine-resistant (W2) strains of P. falciparum.
The anti-malarial activity was determined by measuring plasmodial LDH activity as described earlier (Jain, M.; Khan, S. I.; Tekwani, B. L.; Jacob, M. R.; Singh, S.; Singh, P. P.; Jain, R. Synthesis, anti-malarial, antileishmanial, and antimicrobial activities of some 8-quinolinamine analogues. Bioorg. Med. Chem. 2005, 13, 4458-4466). A suspension of red blood cells infected with D6 or W2 strains of P. falciparum (200 with 2% parasitemia and 2% hematocrit in RPMI 1640 medium supplemented with 10% human serum and 60 µg/mL Amikacin) was added to the wells of a 96-well plate containing 10 μL of serially diluted test samples. The plate was flushed with a gas mixture of 90% N2, 5% O2, and 5% CO2 and incubated at 37° C. for 72 h in a modular incubation chamber (Billups-Rothenberg, Calif.). Parasitic LDH activity was determined by using Malstat™ reagent (Flow Inc., Portland, Oreg.) according to the procedure of Makler and Hinrichs (M. T. Makler and D. J. Hinrichs, Measurement of the lactate dehydrogenase activity of Plasmodium falciparum as an assessment of parasitemia. J. Am. J. Trop. Med. Hyg. 1993, 48(2):205-210). Briefly, 20 μl, of the incubation mixture was mixed with 100 μL of the Malstat™ reagent and incubated at room temperature for 30 min Twenty microliters of a 1:1 mixture of NBT/PES (Sigma, St. Louis, Mo.) was then added and the plate was further incubated in the dark for 1 h. The reaction was then stopped by the addition of 100 μL of a 5% acetic acid solution. The plate was read at 650 nm. Artemisinin and chloroquine were included in each assay as the drug controls. IC50 values were computed from the dose-response curves. To determine the selectivity index of anti-malarial activity of compounds, their cytotoxicity in vitro to mammalian cells was also determined. The assay was performed in 96-well tissue culture-treated plates as described earlier (J. Mustafa, S. I. Khan, G. Ma, L. A. Walker and I. A. Khan, Synthesis and Anticancer Activities of Fatty Acid Analogs of Podophyllotoxin. Lipids. 2004, 39(2):167-172). Vero cells (monkey kidney fibroblasts) were seeded to the wells of 96-well plate at a density of 25,000 cells/well and incubated for 24 h. Samples at different concentrations were added and plates were again incubated for 48 h. The number of viable cells was determined by Neutral Red assay. IC50 values were obtained from dose-response curves. Doxorubicin was used as a positive control.

Question: Which IC50 does the source give for `O=C(/C=C/c1ccc(O)cc1)OC[C@H]1O[C@@H](Oc2c(-c3ccc(O)cc3)oc3cc(O)cc(O)c3c2=O)[C@H](O)[C@@H](O)[C@@H]1O` [Tiliroside] here?
Answer: 123 µM

Source: US8846627B2, “Method for treatment of malaria” (The Second Military Medical University, priority 2009, dated 2014)
